Source: patent US7173063B1, “Topoisomerase poisons for the treatment of proliferative disorders” (Fred Hutchinson Cancer Research Center, priority 2000, dated 2007)

Assays:
[1] = test system: Rat1a fibroblasts; assay: Effect of exposure time on toxicity in Rat1a fibroblasts; type: cell-based, rat; conditions: for toxicity with a two hour exposure: additional experiments; for toxicity of four hour versus six hour exposure: total incubation 96 hours
Method: (§1) Cells were plated at a density of 500 cells per well in opaque 96 well plates (Packard) in a volume of 135 μL per well of the appropriate media. The plates were incubated overnight to allow cell adherence. Seven two-fold dilutions of the test compounds were added in a volume of 15 μL per well in triplicate, and 15 μL of media containing an appropriate concentration of DMSO was added to control wells in triplicate. Plates were incubated at 37° C. for 96 hours. The media was then replaced with 100 μL per well of the appropriate media containing 2 μCi/mL of (methyl-^3H) thymidine (Amersham Pharmacia Biotech), then plates were incubated for a further 24 hours at 37° C. Cells were washed three times with PBS, then 100 μL per well of scintillant was added (Microscint 20, Packard), and sealed plates were counted in a microplate reader (Packard Topcount). For suspension chicken cells, (methyl-^3H) thymidine was added directly to the drug-containing media at a concentration of 20 μCi/mL (comprising one tenth of the media volume) and incubated overnight. The suspension cells were transferred to a UniFilter GF/C plate (Packard) and washed with PBS in a plate washer (Packard). After drying, 25 μL per well of scintillant (Microscint 20, Packard) was added, and sealed plates were counted. Toxicity is expressed as a percentage of the control counts. For experiments involving shorter exposures to compounds, cells were grown in the presence of compound for the appropriate time, then the media was replaced with fresh drug-free media, and incubation continued for the remainder of 96 hours, followed by the normal tritiated thymidine uptake and washing protocol.

[2] = test system: ACHN, SW620, A549, MDA-N; assay: Thymidine incorporation toxicity assay in four cancer derived cell lines; type: cell-based, human; conditions: for correlation between MDR1 activity and toxicity/sensitivity: A549, SW620, ACHN (MDR1 10, 31, 120); for cell line against which most effective: four tumor derived cell lines
Method: (§2) Cell lines were grown at 37° C. in an atmosphere of 5% CO2. The chicken pre-B cell line DT40 and its derivatives (Bezzubova, et al., Cell 89: 185–93 (1997), Takata, et al., EMBO Journal 17: 5497–508 (1998), Yamaguchi-Iwai, et al., Molecular & Cellular Biology 18: 6430–5 (1998)) were grown in RPMI containing 10% fetal calf serum and 1% chicken serum. The remaining cell lines were grown in DMEM with 10% fetal calf serum.
(§3) Toxicity assays in mammalian cell lines were performed using tritiated thymidine incorporation as a measure of the number of viable cells. […] Drug toxicity was measured as follows:
as §1
A common mechanism of tumor resistance to chemotherapeutic agents is overexpression of the drug efflux protein MDR1 (Kane, et al., Advances in Drug Research 28: 182–252 (1996), Nooter, et al., Leukemia Research 18: 233–43 (1994)). MDR1 is overexpressed in many tumor derived cell lines (for instance see http://dtp.nci.nih.gov/), and its overexpression inversely correlates with sensitivity to certain compounds (Kane, et al., Advances in Drug Research 28: 182–252 (1996)).

[3] = molecular target: T1, purified Topo I (Homo sapiens, UniProt P11387); assay: In vitro assay for DNA strand-break formation in the presence of purified Topo I; type: biochemical
T1 sequence (P11387 1-765): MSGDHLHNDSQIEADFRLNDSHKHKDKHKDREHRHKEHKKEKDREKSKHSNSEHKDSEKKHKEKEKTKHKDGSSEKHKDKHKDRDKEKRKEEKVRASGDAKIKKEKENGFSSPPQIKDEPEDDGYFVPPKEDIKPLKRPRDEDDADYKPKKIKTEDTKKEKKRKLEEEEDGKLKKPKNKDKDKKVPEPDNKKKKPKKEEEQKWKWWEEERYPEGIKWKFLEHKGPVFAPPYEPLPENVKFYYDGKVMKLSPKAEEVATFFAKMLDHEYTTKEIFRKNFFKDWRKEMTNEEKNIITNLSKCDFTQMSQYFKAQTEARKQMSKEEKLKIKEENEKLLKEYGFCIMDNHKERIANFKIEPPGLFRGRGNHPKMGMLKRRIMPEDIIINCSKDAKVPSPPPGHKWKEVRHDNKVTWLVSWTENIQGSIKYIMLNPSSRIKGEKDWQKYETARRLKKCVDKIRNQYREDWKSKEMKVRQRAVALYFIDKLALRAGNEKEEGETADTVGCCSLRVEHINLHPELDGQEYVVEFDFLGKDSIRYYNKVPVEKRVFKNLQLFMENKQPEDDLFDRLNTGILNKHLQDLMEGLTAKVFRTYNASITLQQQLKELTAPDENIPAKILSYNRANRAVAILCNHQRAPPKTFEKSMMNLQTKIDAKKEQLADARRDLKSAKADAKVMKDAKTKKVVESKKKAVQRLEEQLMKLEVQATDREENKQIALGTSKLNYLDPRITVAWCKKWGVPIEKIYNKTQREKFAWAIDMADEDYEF

[4] = test system: chicken pre-B cell line DT40; assay: Thymidine incorporation toxicity assay in isogenic DT40 cells with or without KU70, RAD52, RAD54; type: cell-based; conditions: for effect of loss of homologous recombination (RAD52 or RAD54) on toxicity: DT40 with or without RAD52 or RAD54
Method: as §2, §3, §1
In the case of Topo II poisons, the drug/enzyme complex directly produces a DSB, which could occur in all phases of the cell cycle and can apparently be repaired by either DSB repair pathway. Topo I poisons, however, create a single strand break that is converted to a DSB by passage of a replication fork during ongoing DNA synthesis (D'Arpa, et al., Cancer Research 50: 6919–24 (1990), Hsiang, et al., Cancer Research 49: 5077–82 (1989), Holm, et al., Cancer Research 49: 6365–8 (1989)). It has been proposed that DSB's created in this context can only be repaired by homologous recombination, additionally requiring proteins involved in sister chromatid cohesion (Castano, et al., Genes & Development 10: 2564–76 (1996), Castano, et al., Nucleic Acids Research 24: 2404–10 (1996), Walowsky, et al., Journal of Biological Chemistry 274: 7302–8 (1999)).

[5] = test system: DSB repair defective rad50 and rad52 strains of Saccharomyces cerevisiae; type: cell-based; conditions: relative growth (OD660) vs solvent control
Source text: The strains are derived from the A364a genetic background, with the exception of BY4705, which is derived from the S288C background. Gene disruptions were generated by PCR fragment directed replacement (Baudin, et al., Nucleic Acids Research 21: 3329–30 (1993), Guldener, et al., Nucleic Acids Research 24: 2519–24 (1996)). Yeast overexpressing topoisomerase II was constructed by a PCR fragment directed promoter replacement of the topoisomerase II promoter with the yeast GPD promoter flanked upstream by the URA3 marker. All strains (except BY4705) bear the pleitropic drug sensitizing mutations erg6, pdr1, and pdr3 (Balzi, et al., Journal of Bioenergetics & Biomembranes 27: 71–6 (1995), Delaveau, et al, Molecular & General Genetics 244: 501–11 (1994), Gaber, et al., Molecular & Cellular Biology 9: 3447–56 (1989), Saunders, et al., Canadian Journal of Genetics & Cytology, 24: 493–503 (1982). Subik, et al, Current Genetics 10: 665–70 (1986)). The haploid yeast strain BY4705 (Brachmann, et al., Yeast 14: 115–32 (1998)) was used in the experiments described in FIG. 5. Plasmids expressing yeast or human topoisomerase I genes under the GAL promoter (Knab, et al., Journal of Biological Chemistry 268: 22322–30 (1993). Knab, et al., Journal of Biological Chemistry 270: 6141–8 (1995)) were transformed into BY4705 using standard procedures.
Yeast toxicity assays were performed essentially as follows: Exponentially growing cultures of the appropriate strains were diluted in synthetic complete media to a concentration of 7.4×10^4 cells/mL, and aliquots (135 μL) were transferred to each well of clear flat-bottomed 96 well plates. Compounds were added in duplicate or triplicate as 15 μL of the appropriate dilution in 5% DMSO. A 15 μL portion of 5% DMSO was added to control wells. […] Cell growth (OD660) in treated wells was plotted as a percentage of the growth in at least four averaged solvent control wells for the same strain. Camptothecin sodium salt (camptothecin Na) was the agent used in all yeast assays as standard.

[6] = test system: Rat1a fibroblasts; assay: Effect of co-treatment with hydroxyurea (HU) on toxicity in Rat1a fibroblasts; type: cell-based, rat; conditions: six-hour exposure; 0, 0.25, 0.5 or 1 mM HU
Method: FIG. 6 illustrates the effect of exposure time and hydroxyurea on the toxicity of compound Ia and compound IIa. […] Rat1a fibroblasts were exposed to compound during growth for either four or six hours, the media was changed, then cells were grown for an appropriate period such that total incubation time was 96 hours, and processed as described in the Example below. […] The bar graph insets for each graph show growth inhibition by HU alone.
as §1
A six-hour exposure was used to test whether the toxicity of the same set of compounds is dependent on ongoing DNA synthesis. […] Thus, in contrast to camptothecin and topotecan, compounds Ia and IIa show no marked time dependency for toxicity (FIG. 6A) and are not inhibited by HU (FIG. 6B), indicating critical mechanistic differences between these compounds and camptothecin.

Row | Compound | toxicity with a two hour exposure [1] | correlation between MDR1 activity and toxicity/sensitivity [2] | cell line against which most effective [2] | effect of loss of homologous recombination (RAD52 or RAD54) on toxicity [4] | toxicity of four hour versus six hour exposure [1] | other results
1 | CC[C@@]1(O)C(=O)OCc2c1cc1n(c2=O)Cc2cc3ccccc3nc2-1 [camptothecin, Camptothecin, reference compound] | no toxicity | No correlation | most effective against the colon carcinoma derived cell line SW620 | minor effect | – | effectiveness of 96 hour exposure relative to four hour exposure [1]: ≤ 100 fold; camptothecin concentration required in the in vitro assay relative to cell-based assays [3]: 100 fold; strand-break induction [3]: does induce strand-break formation; effect of loss of KU70 on toxicity ([4]; DT40 with or without KU70): unaffected by KU70 expression
2 | COc1cc([C@@H]2c3cc4c(cc3[C@@H](O[C@@H]3O[C@@H]5CO[C@@H](C)O[C@H]5[C@H](O)[C@H]3O)[C@H]3COC(=O)[C@H]23)OCO4)cc(OC)c1O [etoposide, reference compound] | nearly full toxicity | – | – | no effect | little difference in toxicity | –
3 | O=C1c2c(O)ccc(O)c2C(=O)c2c(NCCNCCO)ccc(NCCNCCO)c21 [mitoxantrone] | – | – | – | – | – | profile of selective toxicity: toxic to rad50 and rad52 strains, not toxic in rad14 or rad18 strains [5]: Agents with this profile include
4 | CC(=O)O[C@H]1C(=O)[C@@]2(C)[C@H]([C@H](OC(=O)c3ccccc3)[C@]3(O)C[C@H](OC(=O)[C@H](O)[C@@H](NC(=O)c4ccccc4)c4ccccc4)C(C)=C1C3(C)C)[C@]1(OC(C)=O)CO[C@@H]1C[C@@H]2O [taxol, reference compound] | – | clear inverse correlation | – | – | – | –
5 | CC[C@@]1(O)C(=O)OCc2c1cc1n(c2=O)Cc2cc3c(CN(C)C)c(O)ccc3nc2-1 [topotecan, Topotecan, reference compound] | – | No correlation | most effective against the colon carcinoma derived cell line SW620 | – | six-hour exposure being much more effective than a four-hour exposure | inhibition of toxicity by co-treatment with HU [6]: suppresses the toxicity
